What all share (format): cell-based
Assay [1] addresses T1, wild-type Androgen Receptor (AR-wt) (Homo sapiens, UniProt P10275).
T1 construct: expressed in transfected cells; host or cells: LNCaP (LNCaP AR (cs))
T1 sequence (P10275 1-920): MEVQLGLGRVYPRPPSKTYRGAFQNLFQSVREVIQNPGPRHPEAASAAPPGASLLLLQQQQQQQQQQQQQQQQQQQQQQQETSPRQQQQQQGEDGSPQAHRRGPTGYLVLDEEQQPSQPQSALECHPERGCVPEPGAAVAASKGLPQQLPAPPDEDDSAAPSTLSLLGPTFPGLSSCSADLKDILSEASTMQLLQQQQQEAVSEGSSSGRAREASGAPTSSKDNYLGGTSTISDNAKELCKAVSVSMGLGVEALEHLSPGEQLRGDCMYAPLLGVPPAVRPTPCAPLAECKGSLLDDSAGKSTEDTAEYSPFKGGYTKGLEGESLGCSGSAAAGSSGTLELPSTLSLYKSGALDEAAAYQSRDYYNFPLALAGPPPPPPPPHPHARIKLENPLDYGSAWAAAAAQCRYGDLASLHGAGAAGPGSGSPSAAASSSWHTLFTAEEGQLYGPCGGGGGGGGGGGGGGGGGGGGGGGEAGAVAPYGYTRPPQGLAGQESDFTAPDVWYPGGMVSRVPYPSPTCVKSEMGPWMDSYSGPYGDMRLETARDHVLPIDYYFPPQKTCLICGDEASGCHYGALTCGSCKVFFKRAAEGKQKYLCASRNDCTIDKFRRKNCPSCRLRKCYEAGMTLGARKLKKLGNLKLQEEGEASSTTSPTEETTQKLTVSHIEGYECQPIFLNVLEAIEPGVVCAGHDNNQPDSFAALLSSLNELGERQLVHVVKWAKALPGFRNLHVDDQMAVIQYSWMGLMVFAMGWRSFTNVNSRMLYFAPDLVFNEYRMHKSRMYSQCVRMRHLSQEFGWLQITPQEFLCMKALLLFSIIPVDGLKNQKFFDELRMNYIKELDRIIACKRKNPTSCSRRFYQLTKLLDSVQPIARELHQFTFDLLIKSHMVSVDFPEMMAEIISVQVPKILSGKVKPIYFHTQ
The experiment in a line: LNCaP-AR-wt ANT reporter assay (ARE firefly luciferase, antagonist mode). The following applies: for IC50: antagonist mode, 400 pM R-1881 challenge, −Log10(IC50 [Molar]), read-out: LNCaP-AR-wt ANT pIC50 (converted); for Emax: read-out: LNCaP-AR-wt ANT MAX % Inh. In short, it runs like this: (§1)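 LNCaP cells stably expressing wild-type or F876L AR (puromycin-selected pooled populations) were cultured in charcoal-stripped serum medium. In antagonist mode, agonist challenge was 400 pM for wild-type and 600 pM for F876L.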
A general note: Reporter assays use an easily measured gene product as a stand-in for the process of interest.

Assay [2] deals with T1, wild-type Androgen Receptor (AR-wt). The experiment in a line: LNCaP-AR-wt AG reporter assay (ARE firefly luciferase, agonist mode). The settings on record: for Emax: read-out: LNCaP-AR-wt AG MAX % Stim. In short, it runs like this: as §1
The target of assay [3] is T2, F876L mutant Androgen Receptor (AR-F876L) (Homo sapiens, UniProt P10275, F877L).
T2 construct: expressed in transfected cells; host or cells: LNCaP (LNCaP F876L)
T2 sequence (P10275 1-920 F877L): T1 sequence (P10275 1-920) with F877L
The experiment in a line: LNCaP-AR-F876L ANT reporter assay (ARE firefly luciferase, antagonist mode). The settings on record: for Emax: read-out: LNCaP-AR-F876L ANT MAX % Inh; for IC50: read-out: LNCaP-AR-F876L ANT pIC50 (converted). The essentials: as §1

The target in assay [4] is T2, F876L mutant Androgen Receptor (AR-F876L). The experiment in a line: LNCaP-AR-F876L AG reporter assay (ARE firefly luciferase, agonist mode). The settings on record: for Emax: read-out: LNCaP-AR-F876L AG MAX % Stim. The essentials:
as §1

[5] abbreviates: maximum % inhibition of R1881 control response over tested concentration range.
The mark [6] stands for this setting: agonist mode, −Log10(EC50 [Molar]), read-out: LNCaP-AR-wt AG pEC50 (converted).
Where [7] appears, read: maximum % stimulation (agonist response) over tested concentration range.
The mark [8] stands for this setting: agonist mode, −Log10(EC50 [Molar]), read-out: LNCaP-AR-F876L AG pEC50 (converted).

The values that follow come from US20180008587A1, “THIOHYDANTOIN ANDROGEN RECEPTOR ANTAGONISTS FOR THE TREATMENT OF CANCER” (Jaressen Pharmaceutica NV, priority 2016, published 2018).

Substitutions are numbered along the chain they refer to. Like-named read-outs stand apart in the source and are kept apart here. Where only a bound is given, the exact number is not on record here.

As for `CN1CCC(Oc2ccc(N3C(=S)N(c4cnc(C#N)c(C(F)(F)F)c4)C(=O)C3(C)C)cc2)CC1` [Cpd 19, 5-[4,4-dimethyl-3-[4-[(1-methyl-4-piperidyl)oxy]phenyl]-5-oxo-2-thioxo-imidazolidin-1-yl]-3-(trifluoromethyl)pyridine-2-carbonitrile], the IC50 in assay [1] is 871 nM; in assay [3] it was 525 nM. Besides, the Emax in assay [1] worked out at 99.6%; in assay [2], 0.3%; in assay [3], 98.1%; in assay [4] it was 0.2%. In addition, the EC50 in assay [2] and in assay [4] was over 15100 nM in each case.
On to `N#Cc1ncc(N2C(=O)C3(CCC3)N(c3ccc(C(F)(F)F)cc3)C2=S)cc1C(F)(F)F` [Cpd 98, 5-[5-oxo-7-thioxo-8-[4-(trifluoromethyl)phenyl]-6,8-diazaspiro[3.4]octan-6-yl]-3-(trifluoromethyl)pyridine-2-carbonitrile], for which the values for the IC50 in assay [1] and in assay [3] were 295 nM and 245 nM, respectively. Also, the Emax in assay [1] (setting [5]) was 102%; in assay [2] (setting [7]) it was 0%; in assay [3] (setting [5]) it was 98.9%; in assay [4] (setting [7]), 1.6%. The EC50 in assay [2] (setting [6]) and in assay [4] (setting [8]) was over 15100 nM each time.
`N#Cc1ncc(N2C(=O)C3(CCC3)N(c3cccnc3)C2=S)cc1C(F)(F)F` [Cpd 9, 5-[5-oxo-8-(3-pyridyl)-7-thioxo-6,8-diazaspiro[3.4]octan-6-yl]-3-(trifluoromethyl)pyridine-2-carbonitrile]: the figures for the IC50 in assay [1] and in assay [3] were 871 nM and 692 nM, respectively. The Emax in assay [1] was 99%; in assay [2], -0.2%; in assay [3], 100%; in assay [4], 0%. The EC50 in assay [2] and in assay [4] was over 15100 nM in each case.
Regarding `N#Cc1ncc(N2C(=O)C3(CCC3)N(c3ccc(C(=O)NCCCc4ccccc4)c(F)c3)C2=S)cc1C(F)(F)F` [Cpd 57, 4-[6-[6-cyano-5-(trifluoromethyl)-3-pyridyl]-5-oxo-7-thioxo-6,8-diazaspiro[3.4]octan-8-yl]-2-fluoro-N-(3-phenylpropyl)benzamide], the figures for the IC50 in assay [1] and in assay [3] were 324 nM and 479 nM, respectively. Besides, the Emax in assay [1] worked out at 99%; in assay [2], 0%; in assay [3], 95.5%; in assay [4] it was 0.5%. Moreover, the EC50 in assay [2] and in assay [4] was over 15100 nM each time.
Regarding `Cc1cc(N2C(=O)C(C)(C)N(c3ccc(OC4CCN(C)CC4)cc3)C2=S)cnc1C#N` [Cpd 1, 5-[4,4-dimethyl-3-[4-[(1-methyl-4-piperidyl)oxy]phenyl]-5-oxo-2-thioxo-imidazolidin-1-yl]-3-methyl-pyridine-2-carbonitrile], the IC50 in assay [1] was 871 nM; in assay [3] it was 513 nM. Also, the Emax in assay [1] (setting [5]) is 100%; in assay [2] (setting [7]) it was 0.5%; in assay [3] (setting [5]), 101%; in assay [4] (setting [7]), -0.6%. Also, the EC50 in assay [2] (setting [6]) and in assay [4] (setting [8]) was over 15100 nM in each case.
`Cc1cc(N2C(=O)C3(CCC3)N(c3ccc(C(=O)Nc4ccc(Cl)cc4)c(F)c3)C2=S)cnc1C#N` [Cpd 74, N-(4-chlorophenyl)-4-[6-(6-cyano-5-methyl-3-pyridyl)-5-oxo-7-thioxo-6,8-diazaspiro[3.4]octan-8-yl]-2-fluoro-benzamide]: the IC50 is 1150 nM in assay [1] and 759 nM in assay [3]. In addition, the Emax was found to be 94.1% in assay [1] (setting [5]), 0.6% in assay [2] (setting [7]), 93.8% in assay [3] (setting [5]) and 1% in assay [4] (setting [7]). In addition, the EC50 in assay [2] (setting [6]) and in assay [4] (setting [8]) was over 15100 nM throughout.
`N#Cc1ncc(N2C(=O)C3(CCC3)N(c3ccc(C(=O)NCC4CCCC4)c(F)c3)C2=S)cc1C(F)(F)F` [Cpd 21, 4-[6-[6-cyano-5-(trifluoromethyl)-3-pyridyl]-5-oxo-7-thioxo-6,8-diazaspiro[3.4]octan-8-yl]-N-(cyclopentylmethyl)-2-fluoro-benzamide]: the IC50 was 724 nM in assay [1] and 389 nM in assay [3]. In addition, the Emax in assay [1] (setting [5]) is 100%; in assay [2] (setting [7]), -0.2%; in assay [3] (setting [5]), 98.6%; in assay [4] (setting [7]), 0.1%. Also, the EC50 in assay [2] (setting [6]) and in assay [4] (setting [8]) was over 15100 nM in each case.
With `N#Cc1ncc(N2C(=O)C3(CCC3)N(c3ccc(OC(F)(F)F)cc3)C2=S)cc1C(F)(F)F` [Cpd 38, 5-[5-oxo-7-thioxo-8-[4-(trifluoromethoxy)phenyl]-6,8-diazaspiro[3.4]octan-6-yl]-3-(trifluoromethyl)pyridine-2-carbonitrile], the IC50 in assay [1] was 398 nM; in assay [3] it was 229 nM. Moreover, the Emax in assay [1] (setting [5]) turned out to be 100%; in assay [2], 1.2%; in assay [3] (setting [5]), 99%; in assay [4], 0.3%. The EC50 in assay [2] (setting [6]) and in assay [4] (setting [8]) was over 15100 nM each time.
`N#Cc1ncc(N2C(=O)C3(CCC3)N(c3ccc(O)cc3F)C2=S)cc1C(F)(F)F` [Cpd 47, 5-[8-(2-fluoro-4-hydroxy-phenyl)-5-oxo-7-thioxo-6,8-diazaspiro[3.4]octan-6-yl]-3-(trifluoromethyl)pyridine-2-carbonitrile]: the IC50 in assay [1] was 245 nM; in assay [3], 195 nM. In addition, the Emax worked out at 101% in assay [1] (setting [5]), 0.9% in assay [2], 99.6% in assay [3] (setting [5]) and 0.4% in assay [4]. Further, the EC50 in assay [2] (setting [6]) and in assay [4] (setting [8]) was over 15100 nM in each case.
For `Cc1cc(N2C(=O)C3(CCC3)N(c3ccc(OCCc4ccccn4)c(F)c3)C2=S)cnc1C#N` [Cpd 32, 5-[8-[3-fluoro-4-[2-(2-pyridyl)ethoxy]phenyl]-5-oxo-7-thioxo-6,8-diazaspiro[3.4]octan-6-yl]-3-methyl-pyridine-2-carbonitrile], the IC50 in assay [1] was 490 nM; in assay [3] it was 282 nM. Also, the Emax in assay [1] (setting [5]) worked out at 102%; in assay [2] (setting [7]), 0.7%; in assay [3] (setting [5]) it was 101%; in assay [4] (setting [7]), 0.1%. The EC50 in assay [2] (setting [6]) and in assay [4] (setting [8]) was over 15100 nM each time.
